IC50 data for 20 molecules are collected here from patent US10010539B2, “Pyrazole, triazole and tetrazole orexin receptor antagonists” (MERCK SHARP & DOHME CORP., priority 2014, dated 2018).

The target of test [1] is hOXIR (orexin-1 receptor) (Homo sapiens, UniProt O43613). Briefly: FLIPR Ca2+ Flux Assay, orexin-1 receptor (hOXIR FLIPR). The note with it: CHO cells expressing the orexin-1 receptor (method text: rat; table head: hOXIR); agonist 70 pM Ala-6,12 human orexin-A. The format is cell-based. The protocol: (§1) The utility of the compounds in accordance with the present invention as orexin receptor OX1R and/or OX2R antagonists may be readily determined without undue experimentation by methodology well known in the art, including the “FLIPR Ca^2+ Flux Assay” (Okumura et al., Biochem. Biophys. Res. Comm. 280:976-981, 2001). In a typical experiment the OX1 and OX2 receptor antagonistic activity of the compounds of the present invention was determined in accordance with the following experimental method. For intracellular calcium measurements, Chinese hamster ovary (CHO) cells expressing the rat orexin-1 receptor or the human orexin-2 receptor, are grown in Iscove's modified DMEM containing 2 mM L-glutamine, […], 1% hypoxanthine-thymidine supplement, 100 U/ml penicillin, 100 μg/ml streptomycin and 10% heat-inactivated fetal calf serum (FCS). The cells are seeded at 20,000 cells/well into Becton-Dickinson black 384-well clear bottom sterile plates coated with poly-D-lysine. All reagents were from GIBCO-Invitrogen Corp. The seeded plates are incubated overnight at 37° C. and 5% CO2. Ala-6,12 human orexin-A as the agonist is prepared as a 1 mM stock solution in 1% bovine serum albumin (BSA) and diluted in assay buffer (HBSS containing 20 mM HEPES, 0.1% BSA and 2.5 mM probenecid, pH7.4) for use in the assay at a final concentration of 70 pM. Test compounds are prepared as 10 mM stock solution in DMSO, then diluted in 384-well plates, first in DMSO, then assay buffer. On the day of the assay, cells are washed 3 times with 100 μl assay buffer and then incubated for 60 min (37° C., 5% CO2) in 60 μl assay buffer containing 1 μM Fluo-4AM ester, 0.02% pluronic acid, and 1% BSA. The dye loading solution is then aspirated and cells are washed 3 times with 100 μl assay buffer. 30 μl of that same buffer is left in each well. Within the Fluorescent Imaging Plate Reader (FLIPR, Molecular Devices), test compounds are added to the plate in a volume of 25 μl, incubated for 5 min and finally 25 μl of agonist is added. Fluorescence is measured for each well at 1 second intervals for 5 minutes and the height of each fluorescence peak is compared to the height of the fluorescence peak induced by 70 pM Ala-6,12 orexin-A with buffer in place of antagonist. For each antagonist, IC50 value (the concentration of compound needed to inhibit 50% of the agonist response) is determined. Alternatively, compound potency can be assessed by a radioligand binding assay (described in Bergman et. al. Bioorg. Med. Chem. Lett. 2008, 18, 1425-1430) in which the inhibition constant (Ki) is determined in membranes prepared from CHO cells expressing either the OX1 or OX2 receptor. The intrinsic orexin receptor antagonist activity of a compound which may be used in the present invention may be determined by these assays.
Background: Calcium assays in cells follow changes in intracellular calcium, usually with a dye or a luminescent sensor.

The target in another test is human orexin-2 receptor (Homo sapiens (Human), UniProt O43614). Put plainly: FLIPR Ca2+ Flux Assay, orexin-2 receptor (hOX2R FLIPR). The note with it: CHO cells expressing the human orexin-2 receptor; agonist 70 pM Ala-6,12 human orexin-A. It is filed as cell-based. How it is done: as §1
Chain of human orexin-2 receptor (O43614 whole entry): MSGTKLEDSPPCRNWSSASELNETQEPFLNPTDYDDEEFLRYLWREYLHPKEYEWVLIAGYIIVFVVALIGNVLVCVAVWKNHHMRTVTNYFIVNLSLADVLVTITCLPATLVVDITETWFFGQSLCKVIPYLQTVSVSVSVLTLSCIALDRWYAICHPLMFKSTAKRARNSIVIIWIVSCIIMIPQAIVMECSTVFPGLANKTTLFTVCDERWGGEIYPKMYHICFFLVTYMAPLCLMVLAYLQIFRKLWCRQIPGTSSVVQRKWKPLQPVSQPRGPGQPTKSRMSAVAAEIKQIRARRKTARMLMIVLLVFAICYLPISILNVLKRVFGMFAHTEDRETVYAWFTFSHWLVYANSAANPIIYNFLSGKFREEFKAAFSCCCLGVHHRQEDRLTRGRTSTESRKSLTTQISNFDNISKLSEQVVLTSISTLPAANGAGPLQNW

What is called IC50 is the midpoint of a concentration-inhibition curve. High values mean lower potency, low ones higher potency.

As to `Cc1nc(-c2ccccc2C(=O)N2C[C@H](n3ncc(C(C)(C)O)n3)CC[C@H]2C)no1` [Example 47, 2-{2-[(3R,6R)-6-methyl-1-{[2-(5-methyl-1,2,4-oxadiazol-3-yl)phenyl]carbonyl}piperidin-3-yl]-2H-1,2,3-triazol-4-yl}propan-2-ol], the half-maximal inhibitory concentration (IC50) is more than 10000 nM in test [1] and 45.7 nM at human orexin-2 receptor.
Taken in the same sequence, the figures for `Cc1noc(-c2c(F)cccc2C(=O)N2C[C@H](n3ncc(C(C)(C)O)n3)CC[C@H]2C)n1` [Example 48, 2-{2-[(3R,6R)-1-{[3-fluoro-2-(3-methyl-1,2,4-oxadiazol-5-yl)phenyl]carbonyl}-6-methylpiperidin-3-yl]-2H-1,2,3-triazol-4-yl}propan-2-ol] were more than 10000 nM and 136 nM.
For `C[C@@H]1CC[C@@H](n2ncc(C(C)(C)O)n2)CN1C(=O)c1ccccc1N1CCCC1` [Example 49, 2-(2-{(3R,6R)-6-methyl-1-[(2-pyrrolidin-1-ylphenyl)carbonyl]piperidin-3-yl}-2H-1,2,3-triazol-4-yl)propan-2-ol], the half-inhibitory concentration (IC50) in test [1] amounted to 2830 nM; on human orexin-2 receptor it was 29.1 nM.
As to `C[C@@H]1CC[C@@H](n2ncc(C(C)(C)O)n2)CN1C(=O)c1cccc(Oc2ccccc2)c1` [Example 50, 2-(2-{(3R,6R)-6-methyl-1-[(3-phenoxyphenyl)carbonyl]piperidin-3-yl}-2H-1,2,3-triazol-4-yl)propan-2-ol], the concentration for half-maximal inhibition (IC50) is more than 10000 nM in test [1] and 126 nM at human orexin-2 receptor.
`COc1cccc(-n2nccn2)c1C(=O)N1C[C@H](n2ncc(C(C)(C)O)n2)CC[C@H]1C` [Example 51, 2-{2-[(3R,6R)-1-{[2-methoxy-6-(2H-1,2,3-triazol-2-yl)phenyl]carbonyl}-6-methylpiperidin-3-yl]-2H-1,2,3-triazol-4-yl}propan-2-ol]: the IC50 in test [1] was more than 10000 nM; on human orexin-2 receptor it was 67.4 nM.
Taken in the same sequence, the figures for `Cc1ccc(-n2nccn2)c(C(=O)N2C[C@H](n3ncc(C(C)(C)O)n3)CC[C@H]2C)c1` [Example 52, 2-{2-[(3R,6R)-6-methyl-1-{[5-methyl-2-(2H-1,2,3-triazol-2-yl)phenyl]carbonyl}piperidin-3-yl]-2H-1,2,3-triazol-4-yl}propan-2-ol] were 3090 nM and 59.8 nM.
`Cc1cccc(-n2nccn2)c1C(=O)N1C[C@H](n2ncc(C(C)(C)O)n2)CC[C@H]1C` [Example 53, 2-{2-[(3R,6R)-6-methyl-1-{[2-methyl-6-(2H-1,2,3-triazol-2-yl)phenyl]carbonyl}piperidin-3-yl]-2H-1,2,3-triazol-4-yl}propan-2-ol]: the IC50 turned out to be 1810 nM in test [1] and 31.1 nM on human orexin-2 receptor.
On the same counts, the results for `COc1ccc(C(=O)N2C[C@H](n3ncc(C(C)(C)O)n3)CC[C@H]2C)c(-n2nccn2)c1` [Example 54, 2-{2-[(3R,6R)-1-{[4-methoxy-2-(2H-1,2,3-triazol-2-yl)phenyl]carbonyl}-6-methylpiperidin-3-yl]-2H-1,2,3-triazol-4-yl}propan-2-ol] are more than 10000 nM and 53.3 nM.
As to `Cc1ccc(C(=O)N2C[C@H](n3ncc(C(C)(C)O)n3)CC[C@H]2C)c(-n2nccn2)n1` [Example 55, 2-{2-[(3R,6R)-6-methyl-1-{[6-methyl-2-(2H-1,2,3-triazol-2-yl)pyridin-3-yl]carbonyl}piperidin-3-yl]-2H-1,2,3-triazol-4-yl}propan-2-ol], the IC50 in test [1] is more than 10000 nM; at human orexin-2 receptor it was 222 nM.
In the case of `COCc1ccccc1C(=O)N1C[C@H](n2ncc(C(C)(C)O)n2)CC[C@H]1C` [Example 56, 2-{2-[(3R,6R)-1-{[2-(methoxymethyl)phenyl]carbonyl}-6-methylpiperidin-3-yl]-2H-1,2,3-triazol-4-yl}propan-2-ol], the IC50 in test [1] is more than 10000 nM; on human orexin-2 receptor, 308 nM.
On the same counts, the results for `C[C@@H]1CC[C@@H](n2ncc(C(C)(C)O)n2)CN1C(=O)c1cccc2ccnn12` [Example 57, 2-{2-[(3R,6R)-6-Methyl-1-(pyrazolo[1,5-a]pyridin-7-ylcarbonyl)piperidin-3-yl]-2H-1,2,3-triazol-4-yl}propan-2-ol] are more than 10000 nM and 489 nM.
On the same counts, the results for `C[C@@H]1CC[C@@H](n2ncc(C(C)(C)O)n2)CN1C(=O)c1ncccc1-n1nccn1` [Example 58, 2-{2-[(3R,6R)-6-Methyl-1-{[3-(2H-1,2,3-triazol-2-yl)pyridin-2-yl]carbonyl}piperidin-3-yl]-2H-1,2,3-triazol-4-yl}propan-2-ol] are more than 10000 nM and 44.9 nM.
Taken in the same sequence, the figures for `C[C@@H]1CC[C@@H](n2ncc(C(C)(C)O)n2)CN1C(=O)c1cccnc1-n1nccn1` [Example 59, 2-{2-[(3R,6R)-6-Methyl-1-{[2-(2H-1,2,3-triazol-2-yl)pyridin-3-yl]carbonyl}piperidin-3-yl]-2H-1,2,3-triazol-4-yl}propan-2-ol] were more than 10000 nM and 400 nM.
For `C[C@@H]1CC[C@@H](n2ncc(C(C)(C)O)n2)CN1C(=O)c1cccnc1C1CC1` [Example 60, 2-(2-{(3R,6R)-1-[(2-Cyclopropylpyridin-3-yl)carbonyl]-6-methylpiperidin-3-yl}-2H-1,2,3-triazol-4-yl)propan-2-ol], the IC50 in test [1] was more than 10000 nM; on human orexin-2 receptor it was 608 nM.
For the molecule `CC(O)c1cnn([C@@H]2CC[C@@H](C)N(C(=O)c3cccnc3OCC(F)F)C2)n1` (stereo partly drawn) [Example 61, 1-{2-[(3R,6R)-1-{[2-(2,2-Difluoroethoxy)pyridin-3-yl]carbonyl}-6-methylpiperidin-3-yl]-2H-1,2,3-triazol-4-yl}ethanol], the results for the half-maximal inhibitory concentration (IC50) (in test [1]; on human orexin-2 receptor) were more than 10000 nM and 681 nM, respectively.
On the same counts, the results for `Cc1nn([C@@H]2CC[C@@H](C)N(C(=O)c3ccccc3-n3nccn3)C2)nc1C(C)(C)O` [Example 62, 2-{5-Methyl-2-[(3R,6R)-6-methyl-1-{[2-(2H-1,2,3-triazol-2-yl)phenyl]carbonyl}piperidin-3-yl]-2H-1,2,3-triazol-4-yl}propan-2-ol] are 1250 nM and 12.5 nM.
In the case of `Cc1nn([C@@H]2CC[C@@H](C)N(C(=O)c3cccnc3OC(C)C)C2)nc1C(C)(C)O` [Example 63, 2-{5-Methyl-2-[(3R,6R)-6-methyl-1-{[2-(1-methylethoxy)pyridin-3-yl]carbonyl}piperidin-3-yl]-2H-1,2,3-triazol-4-yl}propan-2-ol], the half-inhibitory concentration (IC50) in test [1] was 3350 nM; on human orexin-2 receptor, 15.9 nM.
Taken in the same sequence, the figures for `Cc1nn([C@@H]2CC[C@@H](C)N(C(=O)c3cccnc3OCC(F)F)C2)nc1C(C)(C)O` [Example 64, 2-{2-[(3R,6R)-1-{[2-(2,2-Difluoroethoxy)pyridin-3-yl]carbonyl}-6-methylpiperidin-3-yl]-5-methyl-2H-1,2,3-triazol-4-yl}propan-2-ol] were 2990 nM and 8.8 nM.
On the same counts, the results for `CCOc1ncccc1C(=O)N1C[C@H](n2nc(C)c(C(C)(C)O)n2)CC[C@H]1C` [Example 65, 2-(2-{(3R,6R)-1-[(2-Ethoxypyridin-3-yl)carbonyl]-6-methylpiperidin-3-yl}-5-methyl-2H-1,2,3-triazol-4-yl)propan-2-ol] are 2930 nM and 15.1 nM.
On the same counts, the results for `Cc1nn([C@@H]2CC[C@@H](C)N(C(=O)c3ccccc3OC(F)F)C2)nc1C(C)(C)O` [Example 66, 2-{2-[(3R,6R)-1-{[2-(Difluoromethoxy)phenyl]carbonyl}-6-methylpiperidin-3-yl]-5-methyl-2H-1,2,3-triazol-4-yl}propan-2-ol] are 3060 nM and 9.6 nM.
